Key:
[1] = target: T1, SpCas9 (Streptococcus pyogenes serotype M1, UniProt Q99ZW2); experiment: eGFP disruption assay, SpCas9, U2OS.eGFP.PEST cells; assay type: cell-based; settings: for Normalized Z rep1 / Z score Rep1: replicate 1; for SpCas9 eGFP disruption Rep1: replicate 1, raw readout; for Normalized Z rep2 / Z socre Rep2: replicate 2; for SpCas9 eGFP disruption Rep2: replicate 2, raw readout
Procedure, shortened: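 U2OS.eGFP.PEST cells nucleofected with 300 ng SpCas9 plasmid plus 30 ng eGFP-targeting gRNA plasmid, or with SpCas9 RNP (10 pmol protein, 12 pmol gRNA). Cells then incubated 24 h with compound (20 μM in screening). Inhibition is read as rescue of eGFP fluorescence in paraformaldehyde-fixed, nuclear-stained cells.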

[2] = target: T1, SpCas9; experiment: Strand displacement assay (SDA) / cumulative activity assay (CAA), SpCas9 primary screen; assay type: biochemical; settings: Primary Screen (150 min); for Normalized Z score 1: replicate 1; for Normalized Z score 2: replicate 2
Procedure: Screening of inhibitors was via a high throughput pipeline, as depicted in FIG. 29. The first screening is via a strand displacement assay (SDA) for detecting nuclease activity (FIG. 27A, 28A). The Cpf1/Cas12 protein/DNA complex has a different structure from Cas9 and requires optimization of the potential fluorophore attachment sites (Yamano, T et al., Cell, 2016). (FIG. 28A). Next screened compounds are evaluated in an eGFP cell assay, and for eGFP dose. Those compounds are further narrowed via a HiBiT assay and finally evaluated in the surveyor assay. SAR evaluations are performed to arrive at lead compounds for further evaluations and variations. General methodology for the assays is as described in at [0253]-[0301] of U.S. Patent Application 62/831,143 filed Apr. 8, 2019, incorporated herein by reference.
The 3′ end of the displacing single-stranded DNA was labeled with a quencher. Following nuclease cleavage of the substrate, the 3′-labeled quenching DNA strand (present in excess) could outcompete the weakly held 3′ strand to anneal to the 5′ strand. The resulting FRET fluorescence quenching provides an optical readout for nuclease activity (FIG. 62A).
Typically, SpCas9: gRNA (1:1.2 ratio) RNP was pre-formed at 1 μM in Cas9 assay buffer (20 mM Tris-HCl, pH=7.5, 100 mM KCl, 5 mM MgCl2) for 5 min at 4° C. before diluting to 10 nM in Cas9 assay buffer (2× final concentration). 25 μL of the Cas9 2× stock was manually dispensed to a black 384-well plate (Corning 3575) using electronic pipette. […] Following this, pre-annealed Alexa-Fluor 647 labeled substrate and quencher were also diluted to 1 nM and 5 nM in Cas9 assay buffer, respectively (2× stock solution). Next, 25 μL of the substrate/quencher solution was added manually to each well of the Cas9-containing 384-well plates using an electronic pipette and was incubated at 37° C. for 2.5 h. Fluorescent signals were read with the microplate reader set to read Alexa-Fluor 647 fluorescence. Assay was performed similarly with SaCas9 and FnCas12a using the respective enzyme, gRNA, substrate, and quencher oligos. […]

[3] = Cas9 = lower control, Ctrl = upper control
[4] = normalized, lower control about 0, upper control about 1

T1 sequence (Q99ZW2 whole entry): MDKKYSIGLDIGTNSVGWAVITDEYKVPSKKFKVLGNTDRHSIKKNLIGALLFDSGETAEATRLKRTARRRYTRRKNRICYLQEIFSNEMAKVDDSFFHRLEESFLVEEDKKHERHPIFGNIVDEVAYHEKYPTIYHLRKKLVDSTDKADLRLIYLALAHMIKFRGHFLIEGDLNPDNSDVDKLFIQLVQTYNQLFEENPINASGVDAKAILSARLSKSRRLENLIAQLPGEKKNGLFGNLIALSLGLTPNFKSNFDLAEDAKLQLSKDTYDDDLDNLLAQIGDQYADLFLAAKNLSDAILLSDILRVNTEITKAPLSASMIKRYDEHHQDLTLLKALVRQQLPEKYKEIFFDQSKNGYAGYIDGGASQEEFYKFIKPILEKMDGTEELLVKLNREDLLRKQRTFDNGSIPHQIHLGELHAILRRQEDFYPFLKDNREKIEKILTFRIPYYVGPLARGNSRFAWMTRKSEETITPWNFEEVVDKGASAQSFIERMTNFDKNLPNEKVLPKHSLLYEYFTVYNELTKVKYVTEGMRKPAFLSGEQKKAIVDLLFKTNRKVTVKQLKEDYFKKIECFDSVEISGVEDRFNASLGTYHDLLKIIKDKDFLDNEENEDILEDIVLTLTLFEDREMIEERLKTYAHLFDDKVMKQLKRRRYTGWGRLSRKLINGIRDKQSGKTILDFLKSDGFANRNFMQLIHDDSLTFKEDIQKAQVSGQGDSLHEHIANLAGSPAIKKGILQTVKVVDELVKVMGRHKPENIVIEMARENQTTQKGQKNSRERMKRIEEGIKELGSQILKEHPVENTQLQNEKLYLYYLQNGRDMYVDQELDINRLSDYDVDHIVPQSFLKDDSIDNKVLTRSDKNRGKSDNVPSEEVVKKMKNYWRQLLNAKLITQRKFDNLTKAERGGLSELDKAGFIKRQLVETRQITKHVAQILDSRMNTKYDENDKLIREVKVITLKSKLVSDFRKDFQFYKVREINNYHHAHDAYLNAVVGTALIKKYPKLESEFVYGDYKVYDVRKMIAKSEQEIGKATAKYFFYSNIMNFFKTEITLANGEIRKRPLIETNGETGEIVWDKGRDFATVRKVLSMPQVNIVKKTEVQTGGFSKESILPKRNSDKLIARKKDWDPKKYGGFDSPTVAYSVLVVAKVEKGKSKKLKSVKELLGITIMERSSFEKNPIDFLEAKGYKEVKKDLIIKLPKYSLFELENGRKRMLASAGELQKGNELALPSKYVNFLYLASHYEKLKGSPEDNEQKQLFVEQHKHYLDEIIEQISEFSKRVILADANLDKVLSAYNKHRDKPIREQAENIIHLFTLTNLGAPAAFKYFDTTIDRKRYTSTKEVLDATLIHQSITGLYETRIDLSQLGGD

## CCc1cccc(-n2nnnc2N2CCN(C(=O)Nc3ccc(C)cc3Cl)CC2)c1 [Compound L378-0331]
[1]
  Normalized Z rep1: −0.41
  Z score Rep1: −2.70
  SpCas9 eGFP disruption Rep1: 68.157
  Normalized Z rep2: 0.06
  Z socre Rep2: 0.61
  SpCas9 eGFP disruption Rep2: 77.513
[2]
  Average Normalized Z score: 0.19
  avg z score primary: 5.44
  Normalized Z score 1: 0.16
  Normalized Z score 2: 0.21

## O=C(Nc1ccc(F)c(Cl)c1)c1ccc(Oc2ccnc(-c3ccc(F)cc3)n2)cc1 [Compound L662-0654]
[1]
  Normalized Z rep1: −0.13
  Z score Rep1: −0.84
  SpCas9 eGFP disruption Rep1: 73.611
  Normalized Z rep2: −0.14
  Z socre Rep2: −1.37
  SpCas9 eGFP disruption Rep2: 73.579
[2]
  Average Normalized Z score: 0.30
  avg z score primary: 5.79
  Normalized Z score 1: 0.30
  Normalized Z score 2: 0.29

## Cc1[nH]nc2ccc(-c3cncc(OCC(N)Cc4ccccc4)c3)cc12 (stereo not drawn) [Compound S2670]
[1]
  Normalized Z rep1: −3.44
  Z score Rep1: −22.46
  SpCas9 eGFP disruption Rep1: 10.416
  Normalized Z rep2: −3.50
  Z socre Rep2: −33.58
  SpCas9 eGFP disruption Rep2: 9.7985
[2]
  avg z score primary: 3.67
  Normalized Z score 1: 0.17
  Normalized Z score 2: 0.21
[2]; average of replicates
  Average Normalized Z score: 0.19

## O=C(Nc1nc(-c2ccccc2)c(C(=O)c2ccccc2)s1)c1ccc2c(c1)OCCO2 [Compound G786-0335]
[1]
  Normalized Z rep1: −0.08
  Z score Rep1: −0.79
  SpCas9 eGFP disruption Rep1: 74.347
  Normalized Z rep2: 0.09
  Z socre Rep2: 2.13
  SpCas9 eGFP disruption Rep2: 77.667
[2]
  Average Normalized Z score: 0.04
  avg z score primary: 4.14
  Normalized Z score 1: 0.04
  Normalized Z score 2: 0.04

## O=C(NC1CCCCC1)c1cccc(Oc2cc(-c3ccccc3)ncn2)c1 [Compound L663-0999]
[1]
  Z score Rep1: 0.55
  Z socre Rep2: −1.03
[1]; [3]
  SpCas9 eGFP disruption Rep1: 77.659
  SpCas9 eGFP disruption Rep2: 74.256
[1]; [4]
  Normalized Z rep1: 0.08
  Normalized Z rep2: −0.11
[2]
  Average Normalized Z score: 0.40
  avg z score primary: 7.77
  Normalized Z score 1: 0.44
  Normalized Z score 2: 0.36

## COc1ccc(CNC(=O)c2ccc(Oc3ccnc(-c4cccc(F)c4)n3)cc2)c(OC)c1 [Compound L662-0987]
[1]
  Z score Rep1: 1.06
  Z socre Rep2: 1.78
[1]; [3]
  SpCas9 eGFP disruption Rep1: 79.157
  SpCas9 eGFP disruption Rep2: 79.829
[1]; [4]
  Normalized Z rep1: 0.16
  Normalized Z rep2: 0.19
[2]
  Average Normalized Z score: 0.37
  avg z score primary: 7.18
  Normalized Z score 1: 0.38
  Normalized Z score 2: 0.36

## CCn1c(CCC(=O)O)nc2cc(S(N)(=O)=O)ccc21 [Compound T5380152]
[1]
  Z score Rep1: −1.27
  Z socre Rep2: 4.01
[1]; [3]
  SpCas9 eGFP disruption Rep1: 54.565
  SpCas9 eGFP disruption Rep2: 62.745
[1]; [4]
  Normalized Z rep1: −0.09
  Normalized Z rep2: 0.19
[2]
  avg z score primary: 4.58
  Normalized Z score 1: 0.14
  Normalized Z score 2: 0.11
[2]; average of replicates
  Average Normalized Z score: 0.13

## CC(C)CNC(=O)c1ccc(Oc2ccnc(-c3ccc(F)cc3)n2)cc1 [Compound L662-0597]
[1]
  Normalized Z rep1: 0.00
  Z score Rep1: 0.02
  SpCas9 eGFP disruption Rep1: 76.108
  Normalized Z rep2: −0.15
  Z socre Rep2: −1.39
  SpCas9 eGFP disruption Rep2: 73.535
[2]
  Average Normalized Z score: 0.37
  avg z score primary: 7.15
  Normalized Z score 1: 0.36
  Normalized Z score 2: 0.37

## Cl.Cl.Fc1cc(-c2cccc3ncc(-c4cnn(C5CCNCC5)c4)nc23)cc(F)c1CN1CCOCC1 [Compound S2686]
[1]
  Normalized Z rep1: −0.73
  Z score Rep1: −4.74
  SpCas9 eGFP disruption Rep1: 62.196
  Normalized Z rep2: −0.57
  Z socre Rep2: −5.44
  SpCas9 eGFP disruption Rep2: 65.516
[2]
  avg z score primary: 7.03
  Normalized Z score 1: 0.37
  Normalized Z score 2: 0.35
[2]; average of replicates
  Average Normalized Z score: 0.36

## COc1ccc(OC)c(CNC(=O)c2ccc(Oc3ccnc(-c4cccc(F)c4)n3)cc2)c1 [Compound L662-0973]
[1]
  Z score Rep1: 0.85
  Z socre Rep2: 1.27
[1]; [3]
  SpCas9 eGFP disruption Rep1: 78.528
  SpCas9 eGFP disruption Rep2: 78.814
[1]; [4]
  Normalized Z rep1: 0.13
  Normalized Z rep2: 0.13
[2]
  Average Normalized Z score: 0.29
  avg z score primary: 5.63
  Normalized Z score 1: 0.35
  Normalized Z score 2: 0.24

## CCOC(=O)C1=C(C)NN=C(Nc2cccc(C)c2C)S1 [Compound T0519-6400]
[1]
  Z score Rep1: 1.96
  Z socre Rep2: 2.42
[1]; [3]
  SpCas9 eGFP disruption Rep1: 62.891
  SpCas9 eGFP disruption Rep2: 59.8
[1]; [4]
  Normalized Z rep1: 0.14
  Normalized Z rep2: 0.12
[2]
  avg z score primary: 4.54
  Normalized Z score 1: 0.05
  Normalized Z score 2: 0.07
[2]; average of replicates
  Average Normalized Z score: 0.06

## O=C(NCc1ccc2c(c1)OCO2)c1cccc(Oc2cc(-c3ccccc3)ncn2)c1 [Compound L663-1076]
[1]
  Normalized Z rep1: −0.11
  Z score Rep1: −0.69
  SpCas9 eGFP disruption Rep1: 74.045
  Normalized Z rep2: −0.01
  Z socre Rep2: −0.12
  SpCas9 eGFP disruption Rep2: 76.06
[2]
  Average Normalized Z score: 0.40
  avg z score primary: 7.72
  Normalized Z score 1: 0.38
  Normalized Z score 2: 0.41

Reference: patent publication US20240115557A1, “INHIBITORS OF RNA-GUIDED NUCLEASES AND USES THEREOF” (The Brigham and Women's Hospital, Inc., priority 2022, published 2024)
